Values joined by “and” are separate entries in the source; they are usually repeats but may differ in a detail not shown here. Equal values may be shown once. Where a name gives a salt, the structure may show the parent alone.
Each compound was assayed against T1, human CTPS1 (Homo sapiens, UniProt P17812) (assay: Human CTPS1 enzyme inhibition (ADP-Glo Max assay)). Details: Table 17, 25° C., read-out: CTPS1 (Human CTPS1 Enzyme Inhibition data grouped by potency range).
T1 construct: purchased Proteros biostructures GmbH
T1 sequence (P17812 1-591): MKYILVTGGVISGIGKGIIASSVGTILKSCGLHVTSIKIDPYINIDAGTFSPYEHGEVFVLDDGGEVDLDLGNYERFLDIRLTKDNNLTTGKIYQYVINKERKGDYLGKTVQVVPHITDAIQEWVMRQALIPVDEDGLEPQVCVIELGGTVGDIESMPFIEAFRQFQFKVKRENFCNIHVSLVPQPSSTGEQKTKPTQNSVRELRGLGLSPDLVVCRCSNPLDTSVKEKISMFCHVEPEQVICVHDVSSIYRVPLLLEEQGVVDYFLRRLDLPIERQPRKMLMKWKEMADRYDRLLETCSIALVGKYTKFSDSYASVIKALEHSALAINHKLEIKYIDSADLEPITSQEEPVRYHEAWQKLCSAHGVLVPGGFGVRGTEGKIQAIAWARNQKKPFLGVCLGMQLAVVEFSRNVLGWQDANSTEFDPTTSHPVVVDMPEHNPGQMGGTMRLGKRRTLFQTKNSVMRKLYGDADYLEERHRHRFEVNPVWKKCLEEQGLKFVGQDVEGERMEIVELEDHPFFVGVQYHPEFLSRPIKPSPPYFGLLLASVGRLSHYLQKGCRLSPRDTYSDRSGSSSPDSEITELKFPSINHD
Assay type: biochemical
Description: The enzyme inhibitory activities of compounds invented against the target of interest were determined using the ADP-Glo™ Max assay (Promega, UK). Assays for human CTPS1 were performed in 1× assay buffer containing 50 mM Tris, 10 mM MgCl2, 0.01% Tween-20, pH to 8.0 accordingly. Finally, immediately before use, L-cysteine was added to the 1× assay buffer to a final concentration of 2 mM. All reagents are from Sigma-Aldrich unless specified otherwise.
3× human CTPS1 protein was prepared in 1× assay buffer to the final working protein concentration required for the reaction. A 2 uL volume per well of 3× human CTPS1 protein was mixed with 2 uL per well of 3× test compound (compound prepared in 1× assay buffer to an appropriate final 3× compound concentration respective to the concentration response curve designed for the compounds under test) for 10 minutes at 25° C. […] ADP-Glo™ Max reagent was added for 60 minutes (6 uL per well) and subsequently ADP-Glo™ Max development reagent was added for 60 minutes (12 uL per well) prior to signal detection in a microplate reader (EnVision® Multilabel Reader, Perkin Elmer). Following each reagent addition over the course of the assay, assay plates were pulse centrifuged for 30 seconds at 500 rpm.
In all cases, the enzyme converts ATP to ADP and the ADP-Glo™ Max reagent subsequently depletes any remaining endogenous ATP in the reaction system. The ADP-Glo™ Max detection reagent converts the ADP that has been enzymatically produced back into ATP and using ATP as a substrate together with luciferin for the enzyme luciferase, light is generated which produces a detectable luminescence. […] The percentage inhibition produced by each concentration of compound was calculated using the equation shown below: […]
With `CCC(C(=O)Nc1ccc(-c2cncc(OCC(F)(F)F)n2)cc1)c1csc(NS(=O)(=O)C2CC2)n1` (stereo not shown) [T195] the IC50 was < 100 nM. For `COCCC(C(=O)Nc1ccc(-c2cncc(F)c2)cc1)c1csc(NS(=O)(=O)C2CC2)n1` (stereo not shown) [T191], the IC50 was < 100 nM. `CCC(C(=O)Nc1ccc(-c2cncc(F)c2)cc1)c1csc(NS(=O)(=O)C2CC2)n1` (stereo not shown) [T90] was tested, and the IC50 was < 100 nM. `CCC(C(=O)Nc1ccc(-c2cncc(OCC(F)(F)F)c2)cn1)c1csc(NS(=O)(=O)C2CC2)n1` (stereo not shown) [T185] was tested, and the IC50 was < 100 nM and 100 to 1000 nM. Compound `CC(C)C(C(=O)Nc1ccc(-c2cccnc2)cc1)c1csc(NS(=O)(=O)C2CC2)n1` (single isomer, unassigned) [T13, 2-(2-(cyclopropanesulfonamido)thiazol-4-yl)-3-methyl-N-(4-(pyridin-3-yl)phenyl)butanamide.HCl] has an IC50 of 100 to 1000 nM. With `CCOc1cncc(-c2ccc(NC(=O)C(CC)c3csc(NS(=O)(=O)C4CC4)n3)c(F)c2)n1` (stereo not shown) [T198] the IC50 was < 100 nM. `CCOc1cncc(-c2ccc(NC(=O)C(C)c3csc(NS(=O)(=O)C4CC4)n3)cc2)n1` (stereo not shown) [T192] was tested, and the IC50 was < 100 nM. `CCC(C(=O)Nc1ccc(-c2cncc(OC(F)F)c2)cc1F)c1csc(NS(=O)(=O)C2CC2)n1` (stereo not shown) [T209] was tested, and the IC50 was < 100 nM. `O=C(Cc1csc(NS(=O)(=O)C2CC2)n1)Nc1ccc(-c2cccnc2)cc1Cl` [T16, N-(2-chloro-4-(pyridin-3-yl)phenyl)-2-(2-(cyclopropanesulfonamido)thiazol-4-yl)acetamide] was tested, and the IC50 was 100 to 1000 nM. `O=C(Nc1ccc(-c2cccnc2)cc1)C1CCCc2sc(NS(=O)(=O)C3CC3)nc21` (stereo not shown) [T84] was tested, and the IC50 was 100 to 1000 nM. For `CCC(C(=O)Nc1ccc(-c2cncc(OC(F)F)c2)cn1)c1csc(NS(=O)(=O)C2CC2)n1` (stereo not shown) [T186], the IC50 was < 100 nM. In the case of `CC(C)OC(C(=O)Nc1ccc(-c2cncc(Cl)c2)cc1)c1csc(NS(=O)(=O)C2CC2)n1` (stereo not shown) [T58], the IC50 is reported as < 100 nM. `CCC(C(=O)Nc1ccc(-c2cccnc2)cc1F)c1csc(NS(=O)(=O)C2CC2)n1` (stereo not shown) [T201] was tested, and the IC50 was < 100 nM. For `CCC(C(=O)Nc1ccc(-c2cncc(C(F)(F)F)n2)cc1F)c1csc(NS(=O)(=O)C2CC2)n1` (stereo not shown) [T197], the IC50 was < 100 nM. `CC(C)C(C(=O)Nc1ccc(-c2cnccn2)cc1)c1csc(NS(=O)(=O)C2CC2)n1` (stereo not shown) [T74] showed an IC50 of 100 to 1000 nM. For `C#Cc1cncc(-c2ccc(NC(=O)C(CC)c3csc(NS(=O)(=O)C4CC4)n3)cc2)n1` (stereo not shown) [T22, 2-(2-(cyclopropanesulfonamido)thiazol-4-yl)-N-(4-(6-ethynylpyrazin-2-yl)phenyl)butanamide], the IC50 was < 100 nM. With `CCOc1cncc(-c2ccc(NC(=O)C(C)c3csc(NS(=O)(=O)C4CC4)n3)cc2)c1` (stereo not shown) [T94] the IC50 was < 100 nM.

Same assay, conditions: Table 18, additional potency data, 25° C., read-out: CTPS1 (Human CTPS1 Enzyme Inhibition data grouped by potency range)
For `CCNc1cncc(-c2ccc(NC(=O)C(CC)c3csc(NS(=O)(=O)C4CC4)n3)cc2)n1` (stereo not shown) [T444, 2-(2-(Cyclopropanesulfonamido)thiazol-4-yl)-N-(4-(6-(ethylamino)pyrazin-2-yl)phenyl)butanamide], the IC50 was < 100 nM. With `CCOc1cncc(-c2ccc(NC(=O)C(OC)c3csc(NS(=O)(=O)C4CC4)n3)c(C#N)c2)n1` (stereo not shown) [T451] the IC50 was < 100 nM. `CC(C)c1cc(-c2cncc(Cl)c2)ccc1NC(=O)C(C)(C)c1csc(NS(=O)(=O)C2CC2)n1` [T359, N-(4-(5-chloropyridin-3-yl)-2-isopropylphenyl)-2-(2-(cyclopropanesulfonamido)thiazol-4-yl)-2-methylpropanamide] was tested, and the IC50 was < 100 nM. For `CCOc1cncc(-c2ccc(NC(=O)C(OC)c3csc(NS(=O)(=O)C4CC4)n3)cc2)n1` (single isomer, unassigned) [T331, 2-(2-(cyclopropanesulfonamido)thiazol-4-yl)-N-(4-(6-ethoxypyrazin-2-yl)phenyl)-2-methoxyacetamide], the IC50 was < 100 nM. `CCOc1cncc(-c2ccc(NC(=O)C(OC)c3csc(NS(=O)(=O)C4CC4)n3)cc2)n1` (racemic) [T410, 2-(2-(cyclopropanesulfonamido)thiazol-4-yl)-N-(4-(6-ethoxypyrazin-2-yl)phenyl)-2-methoxyacetamide] was tested, and the IC50 was < 100 nM. With `Cc1c(NC(=O)C(C)(C)c2csc(NS(=O)(=O)C3CC3)n2)ccc(-c2cncc(Cl)c2)c1F` [T363, N-(4-(5-chloropyridin-3-yl)-3-fluoro-2-methylphenyl)-2-(2-(cyclopropanesulfonamido)thiazol-4-yl)-2-methylpropanamide] the IC50 was < 100 nM. `CCOc1cncc(-c2ccc(NC(=O)C3(c4csc(NS(=O)(=O)C5CC5)n4)CC3)cc2)n1` [T398, 1-(2-(cyclopropanesulfonamido)thiazol-4-yl)-N-(4-(6-ethoxypyrazin-2-yl)phenyl)cyclopropane-1-carboxamide] was tested, and the IC50 was < 100 nM. Work on `Cc1cc(-c2cncc(Cl)c2)c(F)cc1NC(=O)C(C)(C)c1csc(NS(=O)(=O)C2CC2)n1` [T364, N-(4-(5-chloropyridin-3-yl)-5-fluoro-2-methylphenyl)-2-(2-(cyclopropanesulfonamido)thiazol-4-yl)-2-methylpropanamide] yielded an IC50 of 100 to 1000 nM. In the case of `Cc1sc(NS(=O)(=O)C2CC2)nc1C(C)(C)C(=O)Nc1ccc(-c2cncc(C(F)(F)F)n2)cc1F` [T354, 2-(2-(cyclopropanesulfonamido)-5-methylthiazol-4-yl)-N-(2-fluoro-4-(6-(trifluoromethyl)pyrazin-2-yl)phenyl)-2-methylpropanamide], the IC50 is reported as 100 to 1000 nM. `CCOc1cncc(-c2ccc(NC(=O)C(NC(=O)OC)c3csc(NS(=O)(=O)C4CC4)n3)cc2)n1` (stereo not shown) [T327, methyl (1-(2-(cyclopropanesulfonamido)thiazol-4-yl)-2-((4-(6-ethoxypyrazin-2-yl)phenyl)amino)-2-oxoethyl)carbamate] was tested, and the IC50 was < 100 nM. `CC(C)(C(=O)Nc1ccc(-c2cncc(C(F)(F)F)n2)cc1C(F)(F)F)c1csc(NS(=O)(=O)C2CC2)n1` [T346, 2-(2-(cyclopropanesulfonamido)thiazol-4-yl)-2-methyl-N-(2-(trifluoromethyl)-4-(6-(trifluoromethyl)pyrazin-2-yl)phenyl)propanamide] was tested, and the IC50 was 100 to 1000 nM. For `CC(C)Oc1cncc(-c2ccc(NC(=O)C(C)(C)c3csc(NS(C)(=O)=O)n3)c(F)c2)n1` [T392, N-(2-fluoro-4-(6-isopropoxypyrazin-2-yl)phenyl)-2-methyl-2-(2-(methylsulfonamido)thiazol-4-yl)propanamide], the IC50 was < 100 nM. With `CCOc1cncc(-c2ccc(NC(=O)C(CC)c3csc(NS(=O)(=O)C4CC4)n3)c(C)c2)n1` (stereo not shown) [T441] the IC50 was < 100 nM. In the case of `COC(C)(C)c1cncc(-c2ccc(NC(=O)C(C)(C)c3csc(NS(=O)(=O)C4CC4)n3)cc2)n1` [T375, 2-(2-(cyclopropanesulfonamido)thiazol-4-yl)-N-(4-(6-(2-methoxypropan-2-yl)pyrazin-2-yl)phenyl)-2-methylpropanamide], the IC50 is reported as 100 to 1000 nM. With `CCOc1cncc(-c2ccc(NC(=O)C(CCOC)c3csc(NS(=O)(=O)C4CC4)n3)nc2)n1` (stereo not shown) [T436] the IC50 was < 100 nM. In the case of `CCOc1cncc(-c2ccc(NC(=O)C(c3csc(NS(=O)(=O)C4CC4)n3)N(C)C)cc2)n1` (stereo not shown) [T328, 2-(2-(cyclopropanesulfonamido)thiazol-4-yl)-2-(dimethylamino)-N-(4-(6-ethoxypyrazin-2-yl)phenyl)acetamide], the IC50 is reported as < 100 nM. `COCCC(C(=O)Nc1ccc(-c2cncc(OC(C)C)n2)cc1F)c1csc(NS(=O)(=O)C2CC2)n1` (stereo not shown) [T400, 2-(2-(cyclopropanesulfonamido)thiazol-4-yl)-N-(2-fluoro-4-(6-isopropoxypyrazin-2-yl)phenyl)-4-methoxybutanamide] was tested, and the IC50 was < 100 nM.
